Experimental data taken from patent publication US20250361274A1, “PEPTIDE AND PEPTIDE-CONTAINING AGENT” (PEPTIDREAM INC., priority 2022, published 2025).
Numbered stars: 1 amine (or outer) side, 2 acyl side, 3 side chain; on linkers, the order of the positions; unused ones are H or OH. Bridge positions count the residues as written; N and C are the ends. Square brackets hold non-standard residues; d marks the D form. Side chains are listed from the residue outwards. Peptide text beside a SMILES is read from it. I, II: the chains in the order shown. * marks the point of attachment. ξ: configuration not given here. X6 = N=C(N)NCCC[C@H](CC(=O)[C@H](CCCCNC(=O)N1CCN(CC(=O)O)CC1)N[*:2])C(=O)C[C@@H](Cc1ccc(-c2ccccc2)nc1)C(=O)[*:1]; X10 = N=C(N)NCCC[C@H](CC(=O)[C@H](CCCCNC(=O)N1CCN(CC(=O)O)CC1)N[*:2])C(=O)[*:1]; X4 = O=C(O)c1ccc(C[C@H](N[*:1])C(=O)C[C@@H](CO)C(=O)[*:2])cc1; X9 = O=C([C@H](Cc1ccc(-c2cccc(F)c2)cc1)N[*:1])[*:2]; 3Pal(6-Ph) = N[C@@H](Cc1ccc(-c2ccccc2)nc1)C(=O)O; X3 = O=C(C[C@@H](Cc1ccc(F)cc1)C(=O)[*:1])C[*:2]; Phe(4-COOH) = N[C@@H](Cc1ccc(C(=O)O)cc1)C(=O)O; NMePhe(4-Me) = CN[C@@H](Cc1ccc(C)cc1)C(=O)O; Piperazinyl(4-CH2COOH) = O=C(O)CN1CCN(*)CC1; Bip = N[C@@H](Cc1ccc(-c2ccccc2)cc1)C(=O)O; Nle(6-COOH) = N[C@@H](CCCCC(=O)O)C(=O)O; X1 = N=C(CN)NCCC[C@H](N[*:1])C(=O)[*:2]; cisHyp = O=C(O)[C@@H]1C[C@H](O)CN1; Hyp = O=C(O)[C@@H]1C[C@@H](O)CN1; NMeF = CN[C@@H](Cc1ccccc1)C(=O)O; Aad = N[C@@H](CCCC(=O)O)C(=O)O; Cha = N[C@@H](CC1CCCCC1)C(=O)O; β3hC = N[C@@H](CS)CC(=O)O; X5 = O=C(C[*:1])[*:2]; CO = O=C([*:1])[*:2]; ξC = NC(CS)C(=O)O; βAla = NCCC(=O)O

Tests used:
BMP7 = molecular target: T1, BMP7 (Homo sapiens, UniProt P18075); assay: BMP7 signal transduction inhibitory activity: SMAD1 phosphorylation by BMP7 stimulus, A549 cells; type: cell-based; settings: for aLISA BMP7: A549 cells, peptides of Synthesis 2
T1 sequence (P18075 293-431): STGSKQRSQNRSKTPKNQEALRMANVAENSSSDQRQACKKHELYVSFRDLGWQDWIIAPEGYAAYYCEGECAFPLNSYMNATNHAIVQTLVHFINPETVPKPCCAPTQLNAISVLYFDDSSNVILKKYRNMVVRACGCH
In short: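 Inhibition was measured as loss of BMP7-induced SMAD1 phosphorylation, using 10 nM BMP7 on A549 cells. Most peptides were given as three-concentration sets, such as 1/10/100, 10/100/1,000, 100/300/1,000 or 10/30/90 nM. Others were given as eight 1/3-ratio dilutions from 100 or 1,000 nM, alongside Noggin as control.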

BMP4 = molecular target: T2, BMP4 (Homo sapiens, UniProt P12644); assay: BMP4 signal transduction inhibitory activity: SMAD1 phosphorylation by BMP4 stimulus, AlphaLISA SureFire, A549 cells; type: cell-based; settings: for aLISA BMP4: A549 cells, peptides of Synthesis 2
T2 sequence (P12644 293-408): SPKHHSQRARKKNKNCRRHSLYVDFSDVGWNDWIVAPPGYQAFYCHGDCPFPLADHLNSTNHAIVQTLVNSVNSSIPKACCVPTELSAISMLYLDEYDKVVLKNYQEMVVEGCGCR

[1] = 10 nM BMP7, peptide 1, 10, 100 nM
[2] = SMAD1 phosphorylation, peptide 0.02, 0.2, 2 nM

Compound	BMP7 inhibitory activity (in words) (BMP7)	aLISA BMP7 (BMP7; inhibition of SMAD1 phosphorylation by BMP7 stimulus, classes A-D, ND)	BMP4 inhibitory activity (in words) (BMP4)	aLISA BMP4 (BMP4; inhibition of SMAD1 phosphorylation by BMP4 stimulus, classes A-C, ND)	aLISA BMP7 (BMP7; [1])	aLISA BMP4 (BMP4; [2])
CC(C)C[C@@H]1NC(=O)[C@H](Cc2ccc(O)cc2)NC(=O)[C@H](C(C)C)NC(=O)[C@H](CCCNC(=N)N)NC(=O)[C@H](CCCCC(=O)O)NC(=O)CSC[C@@H](C(=O)NCC(N)=O)NC(=O)[C@H](CO)NC(=O)[C@H](Cc2ccc(C(=O)O)cc2)NC(=O)[C@H](Cc2ccc(C(=O)O)cc2)NC(=O)[C@H](Cc2ccc(O)cc2)NC(=O)[C@H](Cc2ccc(-c3ccccc3)cc2)NC(=O)[C@H](C(C)C)NC(=O)[C@H](Cc2ccc(O)cc2)NC(=O)[C@H](CO)NC(=O)[C@H](Cc2ccc(-c3ccccc3)nc2)NC(=O)[C@H](CCCNC(=N)CN)NC(=O)[C@H](CC(=O)O)NC1=O [SEQ ID No. 87] ({CH2CO}-[Nle(6-COOH)]RVYLD[X1][3Pal(6-Ph)]SYV[Bip]Y[Phe(4-COOH)][Phe(4-COOH)]SCG-NH2; thioether N-17)	does not inhibit signal transduction of BMP7	ND (the inhibitory activity was less than 30% at the maximum concentration evaluated)	same level of the BMP4 inhibitory activity as Noggin	A (showed an inhibitory activity of 50% or more in a zone to which the peptide was added to in an amount of 0.2 nM)		
CC(C)[C@@H]1NC(=O)[C@H](Cc2ccc(C(=O)O)cc2)NC(=O)[C@H](C(C)C)NC(=O)[C@H](CCCNC(=N)N)NC(=O)[C@H](CCC(=O)O)NC(=O)CSCC(C(=O)NCC(N)=O)NC(=O)[C@H](CO)CC(=O)[C@H](Cc2ccc(C(=O)O)cc2)NC(=O)[C@H](Cc2ccc(C(=O)O)cc2)NC(=O)[C@H](Cc2ccc(O)cc2)NC(=O)[C@H](Cc2ccc(-c3ccccc3)cc2)NC(=O)[C@@H]2C[C@@H](O)CN2C(=O)[C@H](Cc2ccc(O)cc2)NC(=O)[C@H](CCCCNC(=O)N2CCN(CC(=O)O)CC2)NC(=O)[C@H](Cc2ccc(-c3ccccc3)nc2)CC(=O)[C@H](CCCNC(=N)N)CC(=O)[C@H](CCCCNC(=O)N2CCN(CC(=O)O)CC2)NC1=O (stereo partly drawn) [SEQ ID No. 277, ClAc-E-R-V-F4COO-V-KCOpipzaa-R-3Py6Ph-KCOpipzaa-Y-Hyp-Bph-Y-F4COO-F4COO-S-C-G-NH2] (I: K([CO-Piperazinyl(4-CH2COOH)])Y[Hyp][Bip]Y[Phe(4-COOH)][X4][ξC]G-NH2 / II: ERV[Phe(4-COOH)]V; linker I:8-II:N via X5; linker I:N-II:C via X6)			same level of the BMP4 inhibitory activity as Noggin		C (showed less than 50% of inhibitory activity in 10 nM-addition zone and showed 50% or more of inhibitory activity in 100 nM-addition zone)	A (showed an inhibitory activity of 50% or more in a zone to which the peptide was added to in an amount of 0.2 nM)
CC(C)[C@@H]1NC(=O)[C@H](Cc2ccc(C(=O)O)cc2)NC(=O)[C@H](C(C)C)NC(=O)[C@H](CCCNC(=N)N)NC(=O)[C@H](CCC(=O)O)NC(=O)CSCC(C(=O)NCC(N)=O)NC(=O)[C@H](CO)NC(=O)[C@H](Cc2ccc(C(=O)O)cc2)NC(=O)[C@H](Cc2ccc(C(=O)O)cc2)NC(=O)[C@H](Cc2ccc(O)cc2)NC(=O)[C@H](Cc2ccc(-c3cccc(F)c3)cc2)NC(=O)[C@@H]2C[C@@H](O)CN2C(=O)[C@H](Cc2ccc(O)cc2)NC(=O)[C@H](CCCCNC(=O)N2CCN(CC(=O)O)CC2)NC(=O)[C@H](Cc2ccc(-c3ccccc3)nc2)NC(=O)[C@H](CCCNC(=N)N)CC(=O)[C@H](CCCCNC(=O)N2CCN(CC(=O)O)CC2)NC1=O (stereo partly drawn) [SEQ ID No. 311, ClAc-E-R-V-F4COO-V-KCOpipzaa-R-3Py6Ph-KCOpipzaa-Y-Hyp-Bph3F-Y-F4COO-F4COO-S-C-G-NH2] (I: [3Pal(6-Ph)]K([CO-Piperazinyl(4-CH2COOH)])Y[Hyp][X9]Y[Phe(4-COOH)][Phe(4-COOH)]S[ξC]G-NH2 / II: ERV[Phe(4-COOH)]V; linker I:10-II:N via X5; linker I:N-II:C via X10)					C (showed less than 50% of inhibitory activity in 10 nM-addition zone and showed 50% or more of inhibitory activity in 100 nM-addition zone)	A (showed an inhibitory activity of 50% or more in a zone to which the peptide was added to in an amount of 0.2 nM)
CC(C)C[C@@H]1NC(=O)[C@H](Cc2ccccc2)N(C)C(=O)[C@H](CCCC(=O)O)NC(=O)[C@H](CC2CCCCC2)NC(=O)[C@H](CCC(=O)O)NC(=O)[C@H](CC(=O)O)NC(=O)CNC(=O)[C@H](Cc2ccc(-c3ccccc3)nc2)NC(=O)CNC(=O)[C@H](Cc2ccccc2)N(C)C(=O)CNC(=O)[C@H](Cc2ccccc2)NC(=O)CSC[C@@H](C(=O)NCCC(=O)N[C@H](CCC(=O)O)C(=O)O)NC(=O)[C@@H]2C[C@H](O)CN2C1=O [SEQ ID No. 415, ClAc-F-G-MeF-G-3Py6Ph-G-D-E-Cha-Hgl-MeF-L-P4Sh-C-bA-de-OH] ({CH2CO}-FG[NMeF]G[3Pal(6-Ph)]GDE[Cha][Aad][NMeF]L[cisHyp]C[βAla][dE]-OH; thioether N-14)					C (showed less than 50% of inhibitory activity in 10 nM-addition zone and showed 50% or more of inhibitory activity in 100 nM-addition zone)	A (showed an inhibitory activity of 50% or more in a zone to which the peptide was added to in an amount of 0.2 nM)
Cc1ccc(C[C@H]2C(=O)N[C@@H](CC(C)C)C(=O)N3C[C@@H](O)C[C@H]3C(=O)N[C@H](CC(=O)NCCC(=O)N[C@H](CCC(=O)O)C(=O)O)CSCC(=O)C[C@@H](Cc3ccc(F)cc3)C(=O)NCC(=O)N(C)[C@@H](Cc3ccccc3)C(=O)NCC(=O)N[C@@H](Cc3ccc(-c4ccccc4)nc3)C(=O)NCC(=O)N[C@@H](CC(=O)O)C(=O)N[C@@H](CCC(=O)O)C(=O)N[C@@H](CC3CCCCC3)C(=O)N[C@@H](CCCC(=O)O)C(=O)N2C)cc1 [SEQ ID No. 417, ClAc-F4F-G-MeF-G-3Py6Ph-G-D-E-Cha-Hgl-MeF4Me-L-P4Sh-C-bA-de-OH] (G[NMeF]G[3Pal(6-Ph)]GDE[Cha][Aad][NMePhe(4-Me)]L[cisHyp][β3hC][βAla][dE]-OH; linker N-13 via X3)	same level of the BMP7 inhibitory activity as Noggin		does not inhibit signal transduction of BMP 4		C (showed less than 50% of inhibitory activity in 10 nM-addition zone and showed 50% or more of inhibitory activity in 100 nM-addition zone)	A (showed an inhibitory activity of 50% or more in a zone to which the peptide was added to in an amount of 0.2 nM)
